Test results reported in patent US11807835B2, “Detergent compositions containing a stabilized enzyme by phosphonates” (ECOLAB USA INC., priority 2016, dated 2023).

Key:
[1] = test system: protease; assay: Protease activity retention in detergent use solution (4000 ppm, 5 GPG water; peptidyl substrate, glycine buffer pH 9.0); type: biochemical; settings: for Relative Protease Enzyme Activity: use solution at 120° F.
Summary of the method: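 Detergent use solutions at 4000 ppm in 5 GPG water were held at 120° F with stirring and sampled up to 4 h, with aliquots flash-frozen. Activity was read on a peptidyl substrate in glycine buffer pH 9.0 by absorbance against a calibration curve. Retention is % activity relative to the t=0 sample.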

[2] = test system: amylase; assay: Amylase activity retention in detergent use solution (4000 ppm, 5 GPG water; ethylidene substrate EPS, HEPES buffer pH 8.0); type: biochemical
Summary of the method: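 Detergent use solution at 4000 ppm in 5 GPG water held at 120° F.; aliquots taken up to 4 h, flash-frozen, then assayed with p-nitrophenyl valerate in TRIS pH 8.0 (lipase) or EPS substrate in HEPES pH 8.0 (amylase). Retention given as % activity relative to t=0.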

Diglycolamine phosphonate [DGAP]
Relative Protease Enzyme Activity ([1]; All Ash formula, phosphonate 0.3 wt-%, time 0 min): 100.00% | Relative Protease Enzyme Activity ([1]; All Ash formula, phosphonate 0.3 wt-%, time 5 min): 81.79% | Relative Protease Enzyme Activity ([1]; All Ash formula, phosphonate 0.3 wt-%, time 10 min): 75.39% | Relative Protease Enzyme Activity ([1]; All Ash formula, phosphonate 0.3 wt-%, time 20 min): 59.47% | Relative Protease Enzyme Activity ([1]; All Ash formula, phosphonate 0.3 wt-%, time 40 min): 39.98% | Relative Protease Enzyme Activity ([1]; All Ash formula, phosphonate 0.3 wt-%, time 60 min): 27.49% | Relative Protease Enzyme Activity ([1]; All Ash formula, phosphonate 0.3 wt-%, time 90 min): 18.95% | Relative Protease Enzyme Activity ([1]; All Ash formula, phosphonate 0.3 wt-%, time 120 min): 12.48% | Relative Protease Enzyme Activity ([1]; All Ash formula, phosphonate 0.3 wt-%, time 150 min): 10.56% | Relative Protease Enzyme Activity ([1]; All Ash formula, phosphonate 0.3 wt-%, time 180 min): 9.69% | Relative Protease Enzyme Activity ([1]; All Ash formula, phosphonate 0.3 wt-%, time 210 min): 7.02% | Relative Protease Enzyme Activity ([1]; All Ash formula, phosphonate 0.3 wt-%, time 240 min): 6.34% | protease stability in all ash formula ([1]; all ash formula, versus same composition with PBTC or HEDP without amine(s), FIG. 2D): more stable | Relative Protease Enzyme Activity ([1]; base formula, phosphonate 0.3 wt-%, lower half of Table 4A, time 5): 98.30% | Relative Protease Enzyme Activity ([1]; base formula, phosphonate 0.3 wt-%, lower half of Table 4A, time 20): 91.75% | Relative Protease Enzyme Activity ([1]; base formula, phosphonate 0.3 wt-%, lower half of Table 4A, time 90): 84.87% | Relative Protease Enzyme Activity ([1]; base formula, phosphonate 0.3 wt-%, lower half of Table 4A, time 120): 82.96% | Relative Protease Enzyme Activity ([1]; base formula, phosphonate 0.3 wt-%, lower half of Table 4A, time 150, unit not given): 82.44% | Relative Protease Enzyme Activity ([1]; base formula, phosphonate 0.3 wt-%, lower half of Table 4A, time 210): 76.14% | Relative Protease Enzyme Activity ([1]; base formula, phosphonate 0.3 wt-%, lower half of Table 4A, time '0'): 100.00% | Relative Protease Enzyme Activity ([1]; base formula, phosphonate 0.3 wt-%, lower half of Table 4A, time '40'): 89.16% | Relative Protease Enzyme Activity ([1]; base formula, phosphonate 0.3 wt-%, lower half of Table 4A, time 'Blank'): 100.00% | Relative Protease Enzyme Activity ([1]; base formula, phosphonate 0.3 wt-%, lower half of Table 4A, time row printed '10'): 92.44% | Relative Protease Enzyme Activity ([1]; base formula, phosphonate 0.3 wt-%, lower half of Table 4A, time row printed '60'): 79.16% | Relative Protease Enzyme Activity ([1]; base formula, phosphonate 0.3 wt-%, lower half of Table 4A, time row printed '180'): 75.52% | Relative Protease Enzyme Activity ([1]; base formula, phosphonate 0.6 wt-%, time 0 min): 100.00% | Relative Protease Enzyme Activity ([1]; base formula, phosphonate 0.6 wt-%, time 5 min): 105.28% | Relative Protease Enzyme Activity ([1]; base formula, phosphonate 0.6 wt-%, time 10 min): 100.03% | Relative Protease Enzyme Activity ([1]; base formula, phosphonate 0.6 wt-%, time 20 min): 101.24% | Relative Protease Enzyme Activity ([1]; base formula, phosphonate 0.6 wt-%, time 40 min): 100.88% | Relative Protease Enzyme Activity ([1]; base formula, phosphonate 0.6 wt-%, time 90 min): 98.76% | Relative Protease Enzyme Activity ([1]; base formula, phosphonate 0.6 wt-%, time 120 min): 93.04% | Relative Protease Enzyme Activity ([1]; base formula, phosphonate 0.6 wt-%, time 150 min): 88.27% | Relative Protease Enzyme Activity ([1]; base formula, phosphonate 0.6 wt-%, time 180 min): 86.23% | Relative Protease Enzyme Activity ([1]; base formula, phosphonate 0.6 wt-%, time 210 min): 88.24% | Relative Protease Enzyme Activity ([1]; base formula, phosphonate 0.6 wt-%, time 240 min): 89.57% | Relative Protease Enzyme Activity ([1]; base formula, phosphonate at 0.1% elemental phosphorus, time 0 min): 100.00% | Relative Protease Enzyme Activity ([1]; base formula, phosphonate at 0.1% elemental phosphorus, time 5 min): 98.29% | Relative Protease Enzyme Activity ([1]; base formula, phosphonate at 0.1% elemental phosphorus, time 10 min): 103.47% | Relative Protease Enzyme Activity ([1]; base formula, phosphonate at 0.1% elemental phosphorus, time 20 min): 101.47% | Relative Protease Enzyme Activity ([1]; base formula, phosphonate at 0.1% elemental phosphorus, time 40 min): 88.60% | Relative Protease Enzyme Activity ([1]; base formula, phosphonate at 0.1% elemental phosphorus, time 60 min): 86.17% | Relative Protease Enzyme Activity ([1]; base formula, phosphonate at 0.1% elemental phosphorus, time 90 min): 85.84% | Relative Protease Enzyme Activity ([1]; base formula, phosphonate at 0.1% elemental phosphorus, time 120 min): 83.06% | Relative Protease Enzyme Activity ([1]; base formula, phosphonate at 0.1% elemental phosphorus, time 150 min): 81.53% | Relative Protease Enzyme Activity ([1]; base formula, phosphonate at 0.1% elemental phosphorus, time 180 min): 76.41% | Relative Protease Enzyme Activity ([1]; base formula, phosphonate at 0.1% elemental phosphorus, time 210 min): 74.23% | Relative Protease Enzyme Activity ([1]; base formula, phosphonate at 0.1% elemental phosphorus, time 240 min): 72.01% | Relative Amylase Enzyme Activity ([2]; All Ash formula, phosphonate 0.3 wt-%, use solution at 120° F., time 0 min): 100.00% | Relative Amylase Enzyme Activity ([2]; All Ash formula, phosphonate 0.3 wt-%, use solution at 120° F., time 5 min): 89.94% | Relative Amylase Enzyme Activity ([2]; All Ash formula, phosphonate 0.3 wt-%, use solution at 120° F., time 10 min): 87.50% | Relative Amylase Enzyme Activity ([2]; All Ash formula, phosphonate 0.3 wt-%, use solution at 120° F., time 20 min): 88.87% | Relative Amylase Enzyme Activity ([2]; All Ash formula, phosphonate 0.3 wt-%, use solution at 120° F., time 40 min): 86.87% | Relative Amylase Enzyme Activity ([2]; All Ash formula, phosphonate 0.3 wt-%, use solution at 120° F., time 60 min): 82.06% | Relative Amylase Enzyme Activity ([2]; All Ash formula, phosphonate 0.3 wt-%, use solution at 120° F., time 90 min): 81.79% | Relative Amylase Enzyme Activity ([2]; All Ash formula, phosphonate 0.3 wt-%, use solution at 120° F., time 120 min): 75.74% | Relative Amylase Enzyme Activity ([2]; All Ash formula, phosphonate 0.3 wt-%, use solution at 120° F., time 150 min): 79.71% | Relative Amylase Enzyme Activity ([2]; All Ash formula, phosphonate 0.3 wt-%, use solution at 120° F., time 180 min): 65.75% | Relative Amylase Enzyme Activity ([2]; All Ash formula, phosphonate 0.3 wt-%, use solution at 120° F., time 210 min): 71.27% | Relative Amylase Enzyme Activity ([2]; All Ash formula, phosphonate 0.3 wt-%, use solution at 120° F., time 240 min): 70.12% | amylase stability in all ash formula ([2]; all ash formula, versus same composition with PBTC or HEDP without amine(s), FIG. 4D): more stable | Relative Amylase Enzyme Activity ([2]; base formula, phosphonate 0.3 wt-%, use solution at 120° F., time 0 min): 39.01% | Relative Amylase Enzyme Activity ([2]; base formula, phosphonate 0.3 wt-%, use solution at 120° F., time 5 min): 100.00% | Relative Amylase Enzyme Activity ([2]; base formula, phosphonate 0.3 wt-%, use solution at 120° F., time 10 min): 113.48% | Relative Amylase Enzyme Activity ([2]; base formula, phosphonate 0.3 wt-%, use solution at 120° F., time 20 min): 112.07% | Relative Amylase Enzyme Activity ([2]; base formula, phosphonate 0.3 wt-%, use solution at 120° F., time 40 min): 110.36% | Relative Amylase Enzyme Activity ([2]; base formula, phosphonate 0.3 wt-%, use solution at 120° F., time 60 min): 109.99% | Relative Amylase Enzyme Activity ([2]; base formula, phosphonate 0.3 wt-%, use solution at 120° F., time 90 min): 118.04% | Relative Amylase Enzyme Activity ([2]; base formula, phosphonate 0.3 wt-%, use solution at 120° F., time 120 min): 110.39% | Relative Amylase Enzyme Activity ([2]; base formula, phosphonate 0.3 wt-%, use solution at 120° F., time 150 min): 111.92% | Relative Amylase Enzyme Activity ([2]; base formula, phosphonate 0.3 wt-%, use solution at 120° F., time 180 min): 112.24% | Relative Amylase Enzyme Activity ([2]; base formula, phosphonate 0.3 wt-%, use solution at 120° F., time 210 min): 115.96% | Relative Amylase Enzyme Activity ([2]; base formula, phosphonate 0.3 wt-%, use solution at 120° F., time 240 min): 110.74% | Relative Amylase Enzyme Activity ([2]; base formula, phosphonate 0.6 wt-%, use solution at 120º F., time 0 min): 100.00% | Relative Amylase Enzyme Activity ([2]; base formula, phosphonate 0.6 wt-%, use solution at 120º F., time 5 min): 102.43% | Relative Amylase Enzyme Activity ([2]; base formula, phosphonate 0.6 wt-%, use solution at 120º F., time 10 min): 95.89% | Relative Amylase Enzyme Activity ([2]; base formula, phosphonate 0.6 wt-%, use solution at 120º F., time 20 min): 99.40% | Relative Amylase Enzyme Activity ([2]; base formula, phosphonate 0.6 wt-%, use solution at 120º F., time 40 min): 97.26% | Relative Amylase Enzyme Activity ([2]; base formula, phosphonate 0.6 wt-%, use solution at 120º F., time 60 min): 100.23% | Relative Amylase Enzyme Activity ([2]; base formula, phosphonate 0.6 wt-%, use solution at 120º F., time 90 min): 95.37% | Relative Amylase Enzyme Activity ([2]; base formula, phosphonate 0.6 wt-%, use solution at 120º F., time 120 min): 102.17% | Relative Amylase Enzyme Activity ([2]; base formula, phosphonate 0.6 wt-%, use solution at 120º F., time 150 min): 102.37% | Relative Amylase Enzyme Activity ([2]; base formula, phosphonate 0.6 wt-%, use solution at 120º F., time 180 min): 101.89% | Relative Amylase Enzyme Activity ([2]; base formula, phosphonate 0.6 wt-%, use solution at 120º F., time 210 min): 102.69% | Relative Amylase Enzyme Activity ([2]; base formula, phosphonate 0.6 wt-%, use solution at 120º F., time 240 min): 105.89% | Relative Amylase Enzyme Activity ([2]; base formula, phosphonate at 0.1% elemental phosphorus level, use solution at 120º F., time 0 min): 100.00% | Relative Amylase Enzyme Activity ([2]; base formula, phosphonate at 0.1% elemental phosphorus level, use solution at 120º F., time 5 min): 98.51% | Relative Amylase Enzyme Activity ([2]; base formula, phosphonate at 0.1% elemental phosphorus level, use solution at 120º F., time 10 min): 108.49% | Relative Amylase Enzyme Activity ([2]; base formula, phosphonate at 0.1% elemental phosphorus level, use solution at 120º F., time 40 min): 97.68% | Relative Amylase Enzyme Activity ([2]; base formula, phosphonate at 0.1% elemental phosphorus level, use solution at 120º F., time 60 min): 97.62% | Relative Amylase Enzyme Activity ([2]; base formula, phosphonate at 0.1% elemental phosphorus level, use solution at 120º F., time 90 min): 99.36% | Relative Amylase Enzyme Activity ([2]; base formula, phosphonate at 0.1% elemental phosphorus level, use solution at 120º F., time 120 min): 92.67% | Relative Amylase Enzyme Activity ([2]; base formula, phosphonate at 0.1% elemental phosphorus level, use solution at 120º F., time 150 min): 98.24% | Relative Amylase Enzyme Activity ([2]; base formula, phosphonate at 0.1% elemental phosphorus level, use solution at 120º F., time 180 min): 93.89% | Relative Amylase Enzyme Activity ([2]; base formula, phosphonate at 0.1% elemental phosphorus level, use solution at 120º F., time 210 min): 107.33% | Relative Amylase Enzyme Activity ([2]; base formula, phosphonate at 0.1% elemental phosphorus level, use solution at 120º F., time 240 min): 103.75%
